Source: patent US20060229358A1, “Pharmaceutical composition containing flavonoids” (Taipei Medical University, priority 2005, published 2006)
Where two headings read alike, the source gives them in different places.

Key:
[1] = target: T1, high affinity rolipram binding sites (HARBS, PDE4H); assay: Binding to particulate HARBS of whole brain, displacement of [3H]-rolipram (Assay II); design: species or system guinea pig; settings: 2 nM [3H]-rolipram, guinea pig whole brain particulates, FIG. 2; read-out: IC50 for displacement of [3H]-rolipram from HARBS
T1 construct: IC50 for displacement of [3H]-rolipram from HARBS; other: 300 μM, guinea pig, preliminary experimental data; other: guinea pig whole brain particulates; over 300 μM not available due
Protocol: The binding experiments are carried on basis of the methods of Schneider et al. and Zhao et al. with a small modification. Under a protocol approved by the Animal Care and Use Committee of Taipei Medical University, five male guinea pigs (Hartley), weighing 500-600 g, were anesthetized. The whole brains taken therefrom were homogenized with in 10 volumes of cold medium (pH 6.5) containing 20 mM Bis-Tris, 2 mM benzamidine, 2 mM EDTA, 50 mM sodium chloride, 0.1 mM phenylmethanesulfonyl fluoride (PMSF), and 1 mM dithiothreitol. At 4° C., the homogenate was centrifuged at 170 g for 15 min for removing blood vessels and connective tissues, and the supernatant thereof was then re-centrifuged at 40,000 g for 30 min for separating the particulates from the cytosol of cells.
After incubation, the reaction was stopped by transferring the reaction vessel to a bath of crashed ice. Then the reaction mixture was filtered through a punched glass fiber filter (Whatman GF/B) placed in a mini funnel, which was adopted to a 1.5 ml of Eppendorff's tube for collecting the filtrate in the mini centrifuge at 1000 rpm for 10 seconds. By the same way (centrifugation), it is further washed with 0.3 ml reaction buffer each for three times. The Whatman GF/B filter was mixed with 2 ml of cocktail and counted by the β-scintillation counter (Backman, Fullerton, Calif., USA) for counting the radioactivity thereof.

PDE4H (HARBS) [2] = assay: Literature binding to brain HARBS (PDE4H); settings: worked out from the cited EC50 values
Source text: Recently, in United States of American and Europe, the selective inhibitors for the PDE4 are considered as the important materials for treating asthma or chronic obstructive pulmonary disease (COPD). In addition, the clinical trials thereof are considered safe and effective, whereas they have side effects, such as vomiting, gastric hypersecretion, etc.. […] In the brain, there are two binding sites for rolipram, which are high (HARBS) and low affinity rolipram binding sites (LARBS), while in the periphery of bronchi and lung there exist only LARBS. Generally, the anti-inflammatory and the bronchodilatory effects of rolipram are considered as its ability to bind with LARBS [21]. […] Therefore, the pharmaceutical factories in the world are trying to develop drugs with high PDE4H/PDE4L ratio for separating the side effects from the main therapeutic effects, while some progresses are obtained. […] Although the respective PDE4H/PDE4L ratios of roflumilast and cilomilast are much higher than that of rolipram, they are not good enough. […] It seems having a good perspective.

PDE4H (HARBS) [3] = settings: cited from earlier work; for PDE4H/PDE4L ratio: references [24-26]
PDE4L (LARBS) = settings: reference [23]; read-out: EC50 for binding PDE4L; cited from earlier work

| IC50 [1] | PDE4H/PDE4L ratio (PDE4H (HARBS) [2]) | Structure (SMILES) | EC50 (PDE4H (HARBS) [3]; reference [23], read-out: EC50 for binding PDE4H) | EC50 (PDE4L (LARBS)) | PDE4H/PDE4L ratio (PDE4H (HARBS) [3]) |
| --- | --- | --- | --- | --- | --- |
| 7.4 nM | 0.002 | COc1ccc(C2CNC(=O)C2)cc1OC1CCCC1 (stereo not drawn) [rolipram] | ~2 nM | ~1000 nM |  |
|  |  | O=C(Nc1c(Cl)cncc1Cl)C(=O)c1cn(Cc2ccc(F)cc2)c2ccc(O)cc12 [AWD-12-281, N-(3,5-dichloro-pyrid-4-yl)-[1-(4-fluorobenzyl)-5-hydroxy-indole-3-yl]-gly oxylic acid amide] |  |  | about 11 |
|  |  | COc1ccc([C@]2(C#N)CC[C@@H](C(=O)O)CC2)cc1OC1CCCC1 [cilomilast] |  |  | about 1 |
